Data published in ChEMBL document CHEMBL3046193, “Promising antitumor effect of alpha-tocopheryl succinate in human colon and liver cancer cells” (Med Chem Res, 2012).
Calls of active or inactive are those of the source. The rule behind the calls is not given here.

Assays:
HCT-116 [1] = assay: Cytotoxicity against Homo sapiens (human) HCT116 cells at 40 uM after 72 hr by SRB assay; format: functional
HeLa [2] = assay: Cytotoxicity against Homo sapiens (human) HeLa cells at 40 uM after 72 hr by SRB assay; format: functional
HCT-116 [3] = assay: Induction of cell cycle arrest in Homo sapiens (human) HCT116 cells assessed as G2/M phase cells at 52.3 uM at 48 hr by flow cytometric analysis (reference value: 9.7 +/- 0.8 cells); format: functional
HCT-116 [4] = assay: Induction of cell cycle arrest in Homo sapiens (human) HCT116 cells assessed as G2/M phase cells at 52.3 uM at 24 hr by flow cytometric analysis (reference value: 9.7 +/- 0.8 cells); format: functional
HepG2 [5] = assay: Induction of cell cycle arrest in Homo sapiens (human) HepG2 cells assessed as G2/M phase cells at 55 uM at 24 hr by flow cytometric analysis (reference value: 4 +/- 0.9 cells); format: functional
HCT-116 [6] = assay: Cytotoxicity against Homo sapiens (human) HCT116 cells after 48 hr by SRB assay; format: functional, cell-based; details: HCT-116, 48 h
MCF7 [7] = assay: Cytotoxicity against Homo sapiens (human) MCF7 cells at 40 uM after 48 hr by SRB assay; format: functional
HCT-116 [8] = assay: Induction of cell cycle arrest in Homo sapiens (human) HCT116 cells assessed as S phase cells at 52.3 uM at 48 hr by flow cytometric analysis (reference value: 33.6 +/- 0.6 cells); format: functional
MCF7 [9] = assay: Cytotoxicity against Homo sapiens (human) MCF7 cells at 20 to 100 uM by SRB assay; format: functional, cell-based; details: TDE = time-dependent effect
HCT-116 [10] = assay: Antiangiogenic activity against Homo sapiens (human) HCT116 cells assessed as reduction in VEGF level at 52.3 uM after 24 hr by ELISA relative to control; format: functional; parameters: scale not given: the % may be the effect or the level left
HepG2 [11] = assay: Cytotoxicity against Homo sapiens (human) HepG2 cells at 20 to 100 uM by SRB assay; format: functional, cell-based; details: TDE = time-dependent effect
HepG2 [12] = assay: Cytotoxicity against Homo sapiens (human) HepG2 cells assessed as DNA fragmentation at 55 uM from 24 to 48 hr by agarose gel electrophoresis; format: functional, cell-based
HeLa [13] = assay: Cytotoxicity against Homo sapiens (human) HeLa cells at 20 uM after 72 hr by SRB assay; format: functional, cell-based
HepG2 [14] = assay: Induction of cell cycle arrest in Homo sapiens (human) HepG2 cells assessed as increase in G0/G1 phase cells at 55 uM at 48 hr by flow cytometric analysis relative to control; format: functional
HCT-116 [15] = assay: Induction of cell cycle arrest in Homo sapiens (human) HCT116 cells assessed as S phase cells at 52.3 uM at 24 hr by flow cytometric analysis (reference value: 33.6 +/- 0.6 cells); format: functional
HeLa [16] = assay: Cytotoxicity against Homo sapiens (human) HeLa cells after 24 to 72 hr by SRB assay; format: functional, cell-based
HCT-116 [17] = assay: Antiangiogenic activity against Homo sapiens (human) HCT116 cells assessed as reduction in VEGF level at 52.3 uM after 48 hr by ELISA relative to control; format: functional; parameters: scale not given: the % may be the effect or the level left
MCF7 [18] = assay: Cytotoxicity against Homo sapiens (human) MCF7 cells after 24 to 72 hr by SRB assay; format: functional, cell-based
HCT-116 [19] = assay: Induction of cell cycle arrest in Homo sapiens (human) HCT116 cells assessed as S phase cells at 52.3 uM at 16 hr by flow cytometric analysis (reference value: 33.6 +/- 0.6 cells); format: functional
HepG2 [20] = assay: Cytotoxicity against Homo sapiens (human) HepG2 cells at 40 uM after 72 hr by SRB assay; format: functional
HCT-116 [21] = assay: Cytotoxicity against Homo sapiens (human) HCT116 cells after 24 to 72 hr by SRB assay; format: functional, cell-based
HepG2 [22] = assay: Antiangiogenic activity against Homo sapiens (human) HepG2 cells assessed as reduction in VEGF level at 55 uM from 24 to 48 hr by ELISA relative to control; format: functional, cell-based
HepG2 [23] = assay: Induction of cell cycle arrest in Homo sapiens (human) HepG2 cells assessed as G0/G1 phase cells at 55 uM at 16 hr by flow cytometric analysis (reference value: 50.4 +/- 1.7 cells); format: functional
HepG2 [24] = assay: Induction of cell cycle arrest in Homo sapiens (human) HepG2 cells assessed as G2/M phase cells at 55 uM at 48 hr by flow cytometric analysis (reference value: 4 +/- 0.9 cells); format: functional
HepG2 [25] = assay: Induction of cell cycle arrest in Homo sapiens (human) HepG2 cells assessed as increase in G0/G1 phase cells at 55 uM at 24 hr by flow cytometric analysis relative to control; format: functional
HepG2 [26] = assay: Induction of cell cycle arrest in Homo sapiens (human) HepG2 cells assessed as G2/M phase cells at 55 uM at 16 hr by flow cytometric analysis (reference value: 4 +/- 0.9 cells); format: functional
HCT-116 [27] = assay: Induction of apoptosis in Homo sapiens (human) HCT116 cells assessed as caspase9 cleavage at 52.3 uM at 16 hr by Western blot analysis; format: functional, cell-based
HCT-116 [28] = assay: Induction of cell cycle arrest in Homo sapiens (human) HCT116 cells assessed as increase in G0/G1 phase cells at 52.3 uM at 24 hr by flow cytometric analysis relative to control; format: functional
HepG2 [29] = assay: Induction of apoptosis in Homo sapiens (human) HepG2 cells assessed as caspase9 cleavage at 55 uM at 16 hr by Western blot analysis; format: functional, cell-based
MCF7 [30] = assay: Cytotoxicity against Homo sapiens (human) MCF7 cells at 100 uM after 24 hr by SRB assay; format: functional
HCT-116 [31] = assay: Induction of cell cycle arrest in Homo sapiens (human) HCT116 cells assessed as G0/G1 phase cells at 52.3 uM at 16 hr by flow cytometric analysis (reference value: 58.2 +/- 3.7 cells); format: functional
HepG2 [32] = assay: Cytotoxicity against Homo sapiens (human) HepG2 cells after 24 to 72 hr by SRB assay; format: functional, cell-based
HepG2 [33] = assay: Cytotoxicity against Homo sapiens (human) HepG2 cells at 100 uM after 24 hr by SRB assay; format: functional
HCT-116 [34] = assay: Cytotoxicity against Homo sapiens (human) HCT116 cells at 20 to 100 uM by SRB assay; format: functional, cell-based; details: TDE = time-dependent effect
HCT-116 [35] = assay: Induction of apoptosis in Homo sapiens (human) HCT116 cells assessed as effect on Bcl2 level at 52.3 uM from 3 to 24 hr by Western blot analysis; format: functional, cell-based
HeLa [36] = assay: Cytotoxicity against Homo sapiens (human) HeLa cells at 20 to 100 uM by SRB assay; format: functional, cell-based; details: TDE = time-dependent effect
HepG2 [37] = assay: Induction of cell cycle arrest in Homo sapiens (human) HepG2 cells assessed as S phase cells at 55 uM at 16 hr by flow cytometric analysis (reference value: 46.4 +/- 3.6 cells); format: functional
HepG2 [38] = assay: Cytotoxicity against Homo sapiens (human) HepG2 cells at 20 uM after 72 hr by SRB assay; format: functional, cell-based
HepG2 [39] = assay: Cytotoxicity against Homo sapiens (human) HepG2 cells after 48 hr by SRB assay; format: functional, cell-based; details: HepG2, 48 h
HCT-116 [40] = assay: Cytotoxicity against Homo sapiens (human) HCT116 cells at 20 uM after 72 hr by SRB assay; format: functional, cell-based
HCT-116 [41] = assay: Cytotoxicity against Homo sapiens (human) HCT116 cells at 100 uM after 24 hr by SRB assay; format: functional
HCT-116 [42] = assay: Induction of cell cycle arrest in Homo sapiens (human) HCT116 cells assessed as increase in G0/G1 phase cells at 52.3 uM at 48 hr by flow cytometric analysis relative to control; format: functional
MCF7 [43] = assay: Cytotoxicity against Homo sapiens (human) MCF7 cells at 20 uM after 72 hr by SRB assay; format: functional, cell-based
HepG2 [44] = assay: Induction of cell cycle arrest in Homo sapiens (human) HepG2 cells assessed as S phase cells at 55 uM at 24 hr by flow cytometric analysis (reference value: 46.4 +/- 3.6 cells); format: functional
HepG2 [45] = assay: Induction of apoptosis in Homo sapiens (human) HepG2 cells assessed as effect on Bcl2 level at 55 uM from 3 to 24 hr by Western blot analysis; format: functional, cell-based
HCT-116 [46] = assay: Induction of cell cycle arrest in Homo sapiens (human) HCT116 cells assessed as G2/M phase cells at 52.3 uM at 16 hr by flow cytometric analysis (reference value: 9.7 +/- 0.8 cells); format: functional
HepG2 [47] = assay: Induction of cell cycle arrest in Homo sapiens (human) HepG2 cells assessed as S phase cells at 55 uM at 48 hr by flow cytometric analysis (reference value: 46.4 +/- 3.6 cells); format: functional
HeLa [48] = assay: Cytotoxicity against Homo sapiens (human) HeLa cells at 100 uM after 24 hr by SRB assay; format: functional
HCT-116 [49] = assay: Cytotoxicity against Homo sapiens (human) HCT116 cells assessed as DNA fragmentation at […] after 48 hr by agarose gel electrophoresis; format: functional, cell-based

## Cc1c(C)c2c(c(C)c1OC(=O)CCC(=O)O)CC[C@@](C)(CCC[C@H](C)CCC[C@H](C)CCCC(C)C)O2 [(+)-ALPHA-TOCOPHERYL SUCCINATE]
HCT-116 [1]
  Activity: 48%
HeLa [2]
  Activity: 20%
HCT-116 [3]
  Activity: 2.7%
HCT-116 [4]
  Activity: 4.4%
HepG2 [5]
  Activity: 2.1%
HCT-116 [6]
  IC50: 52.3 µM
MCF7 [7]
  Activity: 14%
HCT-116 [8]
  Activity: 13.4%
MCF7 [9]
  Activity: tde
HCT-116 [10]
  Activity: 39%
HepG2 [11]
  Activity: tde
HepG2 [12]
  Activity: Active
HeLa [13]
  Activity: inactive
HepG2 [14]
  Activity: 62.1%
HCT-116 [15]
  Activity: 19.9%
HeLa [16]
  Activity: Dose-dependent effect
HCT-116 [17]
  Activity: 54%
MCF7 [18]
  Activity: Dose-dependent effect
HCT-116 [19]
  Activity: 32.7%
HepG2 [20]
  Activity: 15%
HCT-116 [21]
  Activity: Dose-dependent effect
HepG2 [22]
  Activity: Active
HepG2 [23]
  Activity: 60%
HepG2 [24]
  Activity: 1.8%
HepG2 [25]
  Activity: 27.4%
HepG2 [26]
  Activity: 2.9%
HCT-116 [27]
  Activity: Active
HCT-116 [28]
  Activity: 32.3%
HepG2 [29]
  Activity: Active
MCF7 [30]
  Activity: 45%
HCT-116 [31]
  Activity: 58.7%
HepG2 [32]
  Activity: Dose-dependent effect
HepG2 [33]
  Activity: 55%
HCT-116 [34]
  Activity: tde
HCT-116 [35]
  Activity: inactive
HeLa [36]
  Activity: tde
HepG2 [37]
  Activity: 38.4%
HepG2 [38]
  Activity: inactive
HepG2 [39]
  IC50: 55 µM
HCT-116 [40]
  Activity: inactive
HCT-116 [41]
  Activity: 47%
HCT-116 [42]
  Activity: 47.3%
MCF7 [43]
  Activity: inactive
HepG2 [44]
  Activity: 33.01%
HepG2 [45]
  Activity: inactive
HCT-116 [46]
  Activity: 9.5%
HepG2 [47]
  Activity: 15.4%
HeLa [48]
  Activity: 65%
HCT-116 [49]
  Activity: Active
